Data: patent US20140328882A1, “WHEAT GERM EXTRACT OBTAINED BY PROTEASE HYDROLYSIS AND MEDICAL USE THEREOF” (BIROPHARMA UK LTD, priority 2011, published 2014)

System: colon inflammation induced by 2,4,6 TNBS
Test: Colon-inflammatory model induced by 2,4,6 TNBS in rats
Assay type: in vivo, Wistar (CD) male rats
Conditions: PABD 2 g/kg/day p.o., infliximab 3.0 mg/kg/day, SASP 50 mg/kg/day; for Body weight change (body weight relative to 100% before TNBS): 2,4,6 TNBS 10 mg/rat into colon, evaluated third day, TNBS alone 91.8%; for Seriousness of inflammation (0-11 scale) / Extension of mucous membrane lesions / TNF-α level: 2,4,6 TNBS 10 mg/rat, third day; for Seriousness of inflammation (0-11 scale): TNBS alone 7.6; for Extension of mucous membrane lesions: TNBS alone 60.2%; for TNF-α level: control 12.7, TNBS alone 420.4
Excerpt: Examination of Anti-Inflammatory Effect in Colon-Inflammatory Model Induced by TNBS in the Case of Rats.
The 2,4,6 Trinitrobenzene-sulphonic-acid (2,4,6 TNBS) induction method represents well the pathological changes typical of patients suffering e.g. from Crohn's disease, so this model is well known and accepted in IBD-studies. The method described in Morris G. P. et al. “Hapten-induced model of chronic inflammation and ulceration in the rat colon” Gastroenterology 1989., 96(3); 795-803 was followed.
Examinations were made in Wistar (CD) male rats. Nr: 10-10/groups.
PABD powder was produced as described in Example 2; DH % of it's protein fraction was 20%.
2,4,6 TNBS=2,4,6 Trinitrobenzene-sulphonic-acid in solution.
During the method 2,4,6 TNBS (10 mg/rat) was introduced after 12 hours starving in aether-anaesthesia into the colon. Inflammation reach the maximum on the third day. The animals were sacrificed by cervalis dislocation and the results were evaluated.

Molecule	Body weight change (body weight relative to 100% before TNBS) [%]	Seriousness of inflammation (0-11 scale)	Extension of mucous membrane lesions [%]	TNF-α level [pg/mg protein]
O=C(O)c1cc(/N=N/c2ccc(S(=O)(=O)Nc3ccccn3)cc2)ccc1O [SASP, Sulfasalazine]	100.8	5.8	39.7	236.1
Infliximab: biologically active agent used in the treatment of IBD; comparator treatment	100.0	5.4	36.4	212.0
